The term IC50 denotes the concentration that gives 50% inhibition. A high value points to lower potency. What is called fraction unbound is the share of the substance not bound to proteins or other matrix. A lower fraction unbound goes with little free substance. A word on the Cmax: it is the maximum level reached in the sampled fluid or tissue.

These results are taken from ChEMBL document CHEMBL4321785, “Challenges and Opportunities for Therapeutics Targeting the Voltage-Gated Sodium Channel Isoform NaV1.7” (J Med Chem, 2019).

Data set [1] is filed under the species Rattus norvegicus.
Data set [2] is filed under the species Rattus norvegicus. The source holds these as a separate data set.
The species entered for data set [3] is Rattus norvegicus. The source holds these as a separate data set.
Data set [4] has as its target Sodium channel protein type 1 subunit alpha (Homo sapiens, UniProt P35498). The experiment in a line: Inhibition of human Nav1.1 expressed in HEK293 cells by electrophysiology assay. Format: cell-based.
For data set [5], the target named is Sodium channel protein type 3 subunit alpha (Homo sapiens, UniProt Q9NY46). Description: Inhibition of human Nav1.3 expressed in HEK293 cells by electrophysiology assay. Format: cell-based.
The target in data set [6] is Sodium channel protein type 4 subunit alpha (Homo sapiens, UniProt P35499). The experiment in a line: Inhibition of human Nav1.4 expressed in HEK293 cells by electrophysiology assay. The data set is classed as cell-based.
Data set [7] has as its target Sodium channel protein type 5 subunit alpha (Homo sapiens, UniProt Q14524). Description: Inhibition of human Nav1.5 expressed in HEK293 cells by electrophysiology assay. Format: cell-based.
In data set [8] the target is Sodium channel protein type 8 subunit alpha (Homo sapiens, UniProt Q9UQD0). The experiment in a line: Inhibition of human Nav1.6 expressed in HEK293 cells by electrophysiology assay. The data set is classed as cell-based.
For data set [9], the species on record is Homo sapiens. The experiment in a line: Selectivity index, ratio of IC50 for inhibition of human Nav1.1 expressed in HEK293 cells by electrophysiology assay to IC50 for inhibition of human Nav1.7 expressed in HEK293 cells by electrophysiology assay. Format: cell-based.
Data set [10] is filed under the species Homo sapiens. The experiment in a line: Selectivity index, ratio of IC50 for inhibition of human Nav1.3 expressed in HEK293 cells by electrophysiology assay to IC50 for inhibition of human Nav1.7 expressed in HEK293 cells by electrophysiology assay. The data set is classed as cell-based.
The species named for data set [11] is Homo sapiens. Description: Selectivity index, ratio of IC50 for inhibition of human Nav1.4 expressed in HEK293 cells by electrophysiology assay to IC50 for inhibition of human Nav1.7 expressed in HEK293 cells by electrophysiology assay. The data set is classed as cell-based.
Data set [12] is filed under the species Homo sapiens. Description: Selectivity index, ratio of IC50 for inhibition of human Nav1.5 expressed in HEK293 cells by electrophysiology assay to IC50 for inhibition of human Nav1.7 expressed in HEK293 cells by electrophysiology assay. Format: cell-based.
The target in data set [13] is Sodium channel protein type 9 subunit alpha (Rattus norvegicus, UniProt O08562). Description: Inhibition of rat Nav1.7 expressed in HEK293 cells by electrophysiology assay. The data set is classed as cell-based.
Data set [14] can be described thus: Unbound fraction in mouse plasma. Format: ADME, cell-free.
The nature of data set [15]: Ratio of unbound plasma concentration in mouse model of histamine-induced pain to IC50 for inhibition of mouse Nav1.7 expressed in HEK293 cells by electrophysiology assay. The data set is classed as cell-based.
Data set [16] is described as follows: Ratio of unbound plasma concentration in mouse model of capsaicin-induced pain to IC50 for inhibition of mouse Nav1.7 expressed in HEK293 cells by electrophysiology assay. The data set is classed as cell-based.
The species named for data set [17] is Homo sapiens. The experiment in a line: Selectivity index, ratio of IC50 for inhibition of human Nav1.2 expressed in HEK293 cells by electrophysiology assay to IC50 for inhibition of human Nav1.7 expressed in HEK293 cells by electrophysiology assay. The data set is classed as cell-based.
The species named for data set [18] is Homo sapiens. The experiment in a line: Selectivity index, ratio of IC50 for inhibition of human Nav1.6 expressed in HEK293 cells by electrophysiology assay to IC50 for inhibition of human Nav1.7 expressed in HEK293 cells by electrophysiology assay. The data set is classed as cell-based.
Data set [19] is described as follows: Ratio of unbound plasma concentration in mouse model of formalin-induced pain to IC50 for inhibition of mouse Nav1.7 expressed in HEK293 cells by electrophysiology assay. Format: cell-based.
A short description of data set [20]: Ratio of unbound plasma concentration in mouse model of inherited erythromelalgia to IC50 for inhibition of human Nav1.7 expressed in HEK293 cells by electrophysiology assay. The data set is classed as cell-based.
Data set [21] addresses Sodium channel protein type 9 subunit alpha (Homo sapiens, UniProt Q15858). The experiment in a line: Inhibition of human Nav1.7 expressed in HEK293 cells by electrophysiology assay. The data set is classed as cell-based.
Data set [22] addresses Sodium channel protein type 2 subunit alpha (Homo sapiens, UniProt Q99250). Description: Inhibition of human Nav1.2 expressed in HEK293 cells by electrophysiology assay. The data set is classed as cell-based.
In data set [23] the target is Sodium channel protein type 10 subunit alpha (Homo sapiens, UniProt Q9Y5Y9). The experiment in a line: Inhibition of human Nav1.8 expressed in HEK293 cells by electrophysiology assay. Format: cell-based.
The species named for data set [24] is Homo sapiens. The experiment in a line: Selectivity index, ratio of IC50 for inhibition of human Nav1.8 expressed in HEK293 cells by electrophysiology assay to IC50 for inhibition of human Nav1.7 expressed in HEK293 cells by electrophysiology assay. The data set is classed as cell-based.
The nature of data set [25]: Cmax in healthy human. The data set is classed as ADME. Conditions: in vivo.

Structures are written as SMILES. Several values for one entry are separate records, joined by “and”; a condition that tells them apart may be missing. Equal values may be shown once.

Sequence of Sodium channel protein type 5 subunit alpha (Q14524 whole entry): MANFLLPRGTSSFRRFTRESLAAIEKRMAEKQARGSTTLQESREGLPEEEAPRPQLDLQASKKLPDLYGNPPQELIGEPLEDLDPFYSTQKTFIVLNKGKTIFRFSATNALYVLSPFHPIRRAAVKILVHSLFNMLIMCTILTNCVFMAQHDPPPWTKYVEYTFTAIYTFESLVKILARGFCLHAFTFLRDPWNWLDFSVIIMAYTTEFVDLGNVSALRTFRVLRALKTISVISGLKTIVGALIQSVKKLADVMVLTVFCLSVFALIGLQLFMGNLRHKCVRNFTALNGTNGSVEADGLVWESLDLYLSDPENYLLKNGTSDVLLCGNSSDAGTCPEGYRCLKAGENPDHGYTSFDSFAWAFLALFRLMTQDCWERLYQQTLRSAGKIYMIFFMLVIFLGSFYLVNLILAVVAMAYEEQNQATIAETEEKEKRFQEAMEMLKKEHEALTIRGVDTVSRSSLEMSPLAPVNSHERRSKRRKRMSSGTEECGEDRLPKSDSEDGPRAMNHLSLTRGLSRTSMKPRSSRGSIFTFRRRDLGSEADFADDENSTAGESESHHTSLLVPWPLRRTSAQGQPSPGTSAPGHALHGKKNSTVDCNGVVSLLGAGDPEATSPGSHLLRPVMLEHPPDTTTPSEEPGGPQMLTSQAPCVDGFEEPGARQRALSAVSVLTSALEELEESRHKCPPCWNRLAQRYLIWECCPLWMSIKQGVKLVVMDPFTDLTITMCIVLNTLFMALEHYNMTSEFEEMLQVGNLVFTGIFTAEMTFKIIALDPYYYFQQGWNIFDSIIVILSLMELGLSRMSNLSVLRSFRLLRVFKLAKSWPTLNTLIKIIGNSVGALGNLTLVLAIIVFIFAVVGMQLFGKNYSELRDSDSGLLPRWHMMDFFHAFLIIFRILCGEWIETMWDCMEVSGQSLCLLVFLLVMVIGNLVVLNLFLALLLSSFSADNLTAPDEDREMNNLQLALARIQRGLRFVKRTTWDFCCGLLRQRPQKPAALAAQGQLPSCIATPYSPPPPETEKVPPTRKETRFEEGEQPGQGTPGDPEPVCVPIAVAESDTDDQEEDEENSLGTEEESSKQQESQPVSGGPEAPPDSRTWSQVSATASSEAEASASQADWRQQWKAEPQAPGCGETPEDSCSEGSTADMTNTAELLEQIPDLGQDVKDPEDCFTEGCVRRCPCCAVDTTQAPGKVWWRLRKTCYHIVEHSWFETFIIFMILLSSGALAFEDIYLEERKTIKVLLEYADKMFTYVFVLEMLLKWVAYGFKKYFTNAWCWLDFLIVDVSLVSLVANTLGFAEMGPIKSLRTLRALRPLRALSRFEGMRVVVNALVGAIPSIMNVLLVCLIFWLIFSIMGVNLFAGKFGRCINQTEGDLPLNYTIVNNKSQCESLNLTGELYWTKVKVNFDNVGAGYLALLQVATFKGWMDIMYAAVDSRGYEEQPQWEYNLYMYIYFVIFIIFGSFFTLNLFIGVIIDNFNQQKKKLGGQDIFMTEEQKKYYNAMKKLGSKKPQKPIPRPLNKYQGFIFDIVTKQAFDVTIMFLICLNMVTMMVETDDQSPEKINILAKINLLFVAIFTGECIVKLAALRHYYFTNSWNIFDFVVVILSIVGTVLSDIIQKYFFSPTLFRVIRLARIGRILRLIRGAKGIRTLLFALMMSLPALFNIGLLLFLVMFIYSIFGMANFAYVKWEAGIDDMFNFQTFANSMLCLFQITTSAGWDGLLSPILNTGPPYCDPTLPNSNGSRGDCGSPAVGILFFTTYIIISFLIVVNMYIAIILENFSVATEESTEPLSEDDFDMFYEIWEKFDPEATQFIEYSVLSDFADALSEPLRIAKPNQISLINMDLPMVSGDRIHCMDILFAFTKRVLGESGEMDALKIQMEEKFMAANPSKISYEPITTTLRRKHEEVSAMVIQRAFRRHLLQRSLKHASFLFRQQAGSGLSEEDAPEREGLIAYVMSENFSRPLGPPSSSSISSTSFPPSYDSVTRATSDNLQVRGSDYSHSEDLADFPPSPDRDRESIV
Sequence of Sodium channel protein type 4 subunit alpha (P35499 whole entry): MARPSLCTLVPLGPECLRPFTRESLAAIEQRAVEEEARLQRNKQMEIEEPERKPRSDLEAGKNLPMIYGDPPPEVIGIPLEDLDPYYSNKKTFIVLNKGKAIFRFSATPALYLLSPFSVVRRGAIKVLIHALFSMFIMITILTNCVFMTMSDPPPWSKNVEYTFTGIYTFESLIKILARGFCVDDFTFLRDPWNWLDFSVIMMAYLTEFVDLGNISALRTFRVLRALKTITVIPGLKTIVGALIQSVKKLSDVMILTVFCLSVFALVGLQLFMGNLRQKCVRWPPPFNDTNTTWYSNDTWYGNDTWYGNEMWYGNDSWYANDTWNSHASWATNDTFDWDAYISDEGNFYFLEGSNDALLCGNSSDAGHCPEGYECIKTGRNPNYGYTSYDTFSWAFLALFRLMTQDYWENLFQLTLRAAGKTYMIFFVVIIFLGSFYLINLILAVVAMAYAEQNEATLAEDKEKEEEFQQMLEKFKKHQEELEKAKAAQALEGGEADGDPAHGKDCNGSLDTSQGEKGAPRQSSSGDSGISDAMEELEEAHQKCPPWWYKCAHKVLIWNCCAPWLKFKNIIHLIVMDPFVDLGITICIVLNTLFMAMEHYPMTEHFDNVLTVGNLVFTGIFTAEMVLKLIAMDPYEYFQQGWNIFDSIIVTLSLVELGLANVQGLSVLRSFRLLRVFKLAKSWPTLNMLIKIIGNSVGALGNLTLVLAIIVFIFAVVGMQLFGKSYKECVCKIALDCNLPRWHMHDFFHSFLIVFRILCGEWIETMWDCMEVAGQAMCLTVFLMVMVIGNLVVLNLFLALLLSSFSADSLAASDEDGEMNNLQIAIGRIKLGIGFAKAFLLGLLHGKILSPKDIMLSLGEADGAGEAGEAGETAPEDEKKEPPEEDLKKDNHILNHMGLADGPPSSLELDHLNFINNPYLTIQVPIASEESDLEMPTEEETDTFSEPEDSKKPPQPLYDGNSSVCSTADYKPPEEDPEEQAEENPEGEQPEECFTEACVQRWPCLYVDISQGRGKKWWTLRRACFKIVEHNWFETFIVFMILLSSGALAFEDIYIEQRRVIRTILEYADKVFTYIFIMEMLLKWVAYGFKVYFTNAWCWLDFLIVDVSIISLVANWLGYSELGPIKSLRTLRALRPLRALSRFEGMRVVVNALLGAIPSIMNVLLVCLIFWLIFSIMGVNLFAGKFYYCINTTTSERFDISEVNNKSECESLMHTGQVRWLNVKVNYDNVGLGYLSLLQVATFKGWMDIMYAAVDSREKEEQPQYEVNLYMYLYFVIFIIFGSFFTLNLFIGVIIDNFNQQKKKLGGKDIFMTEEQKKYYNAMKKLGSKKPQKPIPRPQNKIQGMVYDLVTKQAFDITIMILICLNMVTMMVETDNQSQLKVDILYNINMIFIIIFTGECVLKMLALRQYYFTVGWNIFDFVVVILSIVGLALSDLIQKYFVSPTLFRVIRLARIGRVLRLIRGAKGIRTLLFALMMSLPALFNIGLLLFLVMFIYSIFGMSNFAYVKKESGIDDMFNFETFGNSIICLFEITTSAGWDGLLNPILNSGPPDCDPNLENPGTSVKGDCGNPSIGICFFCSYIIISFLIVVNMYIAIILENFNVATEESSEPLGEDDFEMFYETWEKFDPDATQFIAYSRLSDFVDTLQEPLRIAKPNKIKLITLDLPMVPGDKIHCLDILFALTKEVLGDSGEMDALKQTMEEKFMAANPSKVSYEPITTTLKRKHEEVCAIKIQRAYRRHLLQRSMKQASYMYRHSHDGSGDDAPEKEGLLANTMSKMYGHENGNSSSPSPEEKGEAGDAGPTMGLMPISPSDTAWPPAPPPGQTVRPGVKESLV

On to `NC1=N[C@H](O)[C@H]2[C@H]3O[C@]4(O)O[C@@H]([C@@H](O)[C@@]2(N1)[C@@H]4O)[C@]3(O)CO`, for which the ED in the data set filed under Rattus norvegicus [1] was 6 µg/kg; in the data set filed under Rattus norvegicus [2], 1 µg/kg; in the data set filed under Rattus norvegicus [3], 1 to 3 µg/kg.
With `COc1cc(-c2cc(F)cc(Cl)c2)c(F)cc1-n1c(=O)ccc2cc(S(=O)(=O)Nc3ccon3)ccc21`, the IC50 in data set [4], in data set [4] (hek293), in [5], in data set [5] (hek293), in [6] and in [6] (hek293) was more than 14000 nM each time. Moreover, the IC50 was more than 14000 nM in data set [7]; more than 14000 nM in [7] (hek293); 1300 nM and > 10000 nM in data set [8]; 8600 nM and > 42000 nM in data set [13]. Also, the Ratio IC50 in the data set filed under Homo sapiens [9], in the data set filed under Homo sapiens [10], in the data set filed under Homo sapiens [11] and in the data set filed under Homo sapiens [12] was more than 4300 in each case. The Fu in data set [14] amounted to 0.014. Also, in data set [14], the fraction unbound amounted to 0.0017. Also, the Ratio in [15] is 5.3 and 4; in data set [16] it was 21.
For the compound `CC1(COc2cc(F)c(C(=O)NS(=O)(=O)C3CC3)cc2C2CC2)CCC2(CC1)CC2`, the Ratio IC50 was determined as 10 in the data set filed under Homo sapiens [9], 3.3 in the data set filed under Homo sapiens [17], 83 in the data set filed under Homo sapiens [12] and 63 in the data set filed under Homo sapiens [18]. In addition, the Ratio in data set [19] worked out at 22; in data set [20] it was 5.2.
As to `O=C1N(Cc2ccc(C(F)(F)F)o2)c2ccccc2[C@]12COc1cc3c(cc12)OCO3` [FUNAPIDE], the IC50 in data set [21] was 54 nM; in [22], 600 nM; in data set [7], 84 nM; in [8], 170 nM; in data set [23], 4800 nM. For the same compound, the Ratio IC50 in the data set filed under Homo sapiens [17] came out at 11; in the data set listed under Homo sapiens [12], 1.5; in the data set listed under Homo sapiens [18], 3.1; in the data set filed under Homo sapiens [24] it was 89.
As to `N#Cc1cc(S(=O)(=O)Nc2ncns2)ccc1Oc1ccc(-c2cccc(C(F)(F)F)c2)cc1-c1ccnc(CNCCC2CCNCC2)c1`, the IC50 amounted to 3 nM in data set [22]; 1500 nM in data set [6]; 2600 nM in data set [7]; 5.8 nM in data set [8]; 26000 nM in data set [23].
As for `Nc1[nH]ncc1-c1cc(Cl)ccc1Oc1cc(F)c(S(=O)(=O)Nc2cscn2)cc1Cl` [PF-05089771], the Cmax in [25] was more than 10000 ng/mL.
With `CSCC[C@@H]1NC(=O)[C@H](Cc2ccc(O)cc2)NC(=O)[C@H](CCCNC(=N)N)NC(=O)[C@@H](NC(=O)[C@@H](N)CC(=O)O)CSSC[C@@H]2NC(=O)[C@@H]3CSSC[C@@H](C(=O)N[C@@H](C)C(=O)N[C@@H](Cc4c[nH]c5ccccc45)C(=O)N[C@@H](CC(=O)O)C(=O)N[C@@H](Cc4ccccc4)C(=O)N[C@H](C(=O)N[C@@H](Cc4ccccc4)C(=O)N[C@H](C(=O)O)[C@@H](C)O)[C@@H](C)O)NC(=O)[C@H](Cc4ccc(O)cc4)NC(=O)[C@H](CCCCN)NC(=O)[C@H](CCSC)NC(=O)[C@H](CCCCN)NC(=O)[C@H](CCCNC(=N)N)NC(=O)[C@H](CCCCN)NC(=O)[C@H](CSSC[C@H](NC(=O)[C@H](CC(=O)O)NC(=O)CNC(=O)[C@H](Cc4ccccc4)NC1=O)C(=O)N[C@@H](CCC(=O)O)C(=O)N[C@@H](CCCCN)C(=O)N[C@@H](CC(=O)O)C(=O)N[C@@H](CCC(=O)O)C(=O)N[C@@H](CC(=O)O)C(=O)N3)NC(=O)CNC(=O)[C@H](CC(C)C)NC(=O)[C@H](Cc1cnc[nH]1)NC(=O)[C@H](CCCCN)NC2=O`, the half-inhibitory concentration (IC50) in data set [22] stood at 120 nM; in [6], 140 nM; in data set [13] it was 1.5 nM.
For `O=C(NS(=O)(=O)N1CCC1)c1cc(C2CC2)c(OCC23CC4CC(CC(C4)C2)C3)cc1F`, the IC50 in data set [22] came out at 20 nM; in data set [7], 49 nM; in data set [8], 480 nM.
